From article PMC10439230 (Scientific Reports, 2023)

Tests used:
[1] = test system: H69AR (multidrug-resistant small cell lung carcinoma); experiment: Cytotoxic activity assay (MTT); format: cell-based, human; settings: for IC50: Homo sapiens, H69AR, 48 h exposure, MTT, read-out: Cell lines, IC50 (μM) H69AR; for Selectivity Index (SI) values H69AR: SI = IC50 normal cell (MRC-5)/ IC50 cancer cell
Source text: (§1) The synthetic compounds were screened for their cytotoxic activity using standard MTT or XTT methods[30] against a panel of nine human cancer cell lines and one normal cell line, including MDA-MB-231 (triple-negative breast cancer), T-47D (hormone-dependent breast cancer), HepG2 (hepatocellular carcinoma), A549 (lung adenocarcinoma), H69AR (multidrug-resistant small cell lung carcinoma), HuCCA-1 (cholangiocarcinoma derived from a patient), HeLa (cervical carcinoma), and two leukemia cell lines, HL-60 (acute promyelocytic leukemia) and MOLT-3 (T cell acute lymphoblastic leukemia). MRC-5 normal embryonic lung fibroblast cell line was used to represent normal cells. Chemotherapeutic drugs, doxorubicin and etoposide, were used as positive controls.
(§2) The cells were seeded into 96-well plates (100 µL for adherent cells and 75 µL for suspended cells) at a density of 5000–20,000 cells per well, depending on their growth rates. Adherent and suspended cells were then allowed to grow at 37 °C with 95% humidity and 5% CO2 for 24 h and 30 min, respectively. The cytotoxicity assay was initiated by adding an equal volume of cell culture medium containing tested compound at predetermined concentrations. Following 48 h of exposure, cell viability was determined using MTT assay for adherent cells[51],[52]or XTT assay for suspeended cells. Briefly, for adherent cells, 100 µL of the MTT reagent was added to each well, and the microtiter plates were further incubated for 2.5–4 h. The medium was subsequently replaced with 100 µL of DMSO to dissolve the purple formazan before the absorbance at 550 nm was measured using a microplate reader (a SpectraMax Plus 384) with a reference wavelength of 650 nm. For suspended cells, 75 µL of the XTT reagent was added to each well, and the cells were further incubated for 4 h. Afterwards, the absorbance of orange formazan at 492 nm was measured with a reference wavelength of 690 nm using a microplate reader.

[2] = test system: HeLa (cervical carcinoma); experiment: Cytotoxic activity assay (MTT); format: cell-based, human; settings: for IC50: Homo sapiens, 48 h exposure, MTT, read-out: Cell lines, IC50 (μM) HeLa; for Selectivity Index (SI) values HeLa: SI = IC50 normal cell (MRC-5)/ IC50 cancer cell
Source text: as §1, §2

[3] = test system: HuCCA-1 (cholangiocarcinoma derived from a patient); experiment: Cytotoxic activity assay (MTT); format: cell-based, human; settings: for IC50: Homo sapiens, HuCC-A1, 48 h exposure, MTT, read-out: Cell lines, IC50 (μM) HuCCA-1; for Selectivity Index (SI) values HuCCA-1: SI = IC50 normal cell (MRC-5)/ IC50 cancer cell
Source text: as §1, §2

[4] = test system: MDA-MB-231 (triple-negative breast cancer); experiment: Cytotoxic activity assay (MTT); format: cell-based, human; settings: for IC50: Homo sapiens, MDA-MB-231, 48 h exposure, MTT, read-out: Cell lines, IC50 (μM) MDA-MB-231; for Selectivity Index (SI) values MDA-MB-231: SI = IC50 normal cell (MRC-5)/ IC50 cancer cell
Source text: as §1, §2

[5] = test system: A549 (lung adenocarcinoma); experiment: Cytotoxic activity assay (MTT); format: cell-based, human; settings: for IC50: Homo sapiens, A549, 48 h exposure, MTT, read-out: Cell lines, IC50 (μM) A549; for Selectivity Index (SI) values A549: SI = IC50 normal cell (MRC-5)/ IC50 cancer cell
Source text: as §1, §2

[6] = test system: HepG2 (hepatocellular carcinoma); experiment: Cytotoxic activity assay (MTT); format: cell-based, human; settings: for IC50: Homo sapiens, HepG2, 48 h exposure, MTT, read-out: Cell lines, IC50 (μM) HepG2; for Selectivity Index (SI) values HepG2: SI = IC50 normal cell (MRC-5)/ IC50 cancer cell
Source text: as §1, §2

[7] = test system: T-47D (hormone-dependent breast cancer); experiment: Cytotoxic activity assay (MTT); format: cell-based, human; settings: for IC50: Homo sapiens, T47D, 48 h exposure, MTT, read-out: Cell lines, IC50 (μM) T47-D; for Selectivity Index (SI) values T47-D: SI = IC50 normal cell (MRC-5)/ IC50 cancer cell
Source text: as §1, §2

[8] = test system: MOLT-3 (T cell acute lymphoblastic leukemia); experiment: Cytotoxic activity assay (XTT); format: cell-based, human; settings: for IC50: Homo sapiens, MOLT-3, 48 h exposure, XTT, read-out: Cell lines, IC50 (μM) MOLT-3; for Selectivity Index (SI) values MOLT-3: SI = IC50 normal cell (MRC-5)/ IC50 cancer cell
Source text: as §1, §2

[9] = test system: HL-60 (acute promyelocytic leukemia); experiment: Cytotoxic activity assay (XTT); format: cell-based, human; settings: for IC50: Homo sapiens, HL-60, 48 h exposure, XTT, read-out: Cell lines, IC50 (μM) HL-60; for Selectivity Index (SI) values HL-60: SI = IC50 normal cell (MRC-5)/ IC50 cancer cell
Source text: as §1, §2

[10] = test system: MRC-5 normal embryonic lung fibroblast cell line; experiment: Cytotoxic activity assay (MTT), normal cells; format: cell-based; settings: Homo sapiens, MRC5, 48 h exposure, read-out: Cell lines, IC50 (μM) MRC-5
Source text: as §1, §2

| Compound | IC50 [1] | Selectivity Index (SI) values H69AR [1] | IC50 [2] | Selectivity Index (SI) values HeLa [2] | IC50 [3] | Selectivity Index (SI) values HuCCA-1 [3] | IC50 [4] | Selectivity Index (SI) values MDA-MB-231 [4] | IC50 [5] | Selectivity Index (SI) values A549 [5] | IC50 [6] | Selectivity Index (SI) values HepG2 [6] | IC50 [7] | Selectivity Index (SI) values T47-D [7] | IC50 [8] | Selectivity Index (SI) values MOLT-3 [8] | IC50 [9] | Selectivity Index (SI) values HL-60 [9] | IC50 [10] |
| --- | --- | --- | --- | --- | --- | --- | --- | --- | --- | --- | --- | --- | --- | --- | --- | --- | --- | --- | --- |
| C=C1CCC2C(C)(C)CCCC2(C)C1CCC(C)=CCO (stereo not drawn) [Compound 2, anticopalol] | 111.9 ± 0.71 µM | 0.5 | 37.49 ± 0.04 µM | 1.4 | 51.5 ± 0.24 µM | 1.1 | 31.77 ± 0.13 µM | 1.7 | 60.52 ± 0.22 µM | 0.9 | 52.33 ± 0.34 µM | 1.0 | 52.33 ± 0.34 µM | 1.0 | 32.2 ± 1.44 µM | 1.7 | 27.7 ± 0.31 µM | 2.0 | 54.15 ± 0.31 µM |
| C=C1CC[C@H]2C(C)(C)CCC[C@]2(C)[C@H]1CC/C(C)=C/C(=O)NCCc1c[nH]c2ccccc12 [Compound 4h, (E)-N-(2-(1H-Indol-3-yl)ethyl)-3-methyl-5-((1S,4aS,8aS)-5,5,8a-trimethyl-2-methylenedecahydronaphthalen-1-yl)pent-2-enamide] | 71.5 ± 2.47 µM | 0.7 | 20.7 ± 0.4 µM | 2.3 | 42.4 ± 0.5 µM | 1.1 | 23.5 ± 0.36 µM | 2.1 | 41.4 ± 2.48 µM | 1.2 | 40.5 ± 2.25 µM | 1.2 | > 120 µM | 0.4 | 17.1 ± 0.57 µM | 2.8 | 16.8 ± 0.61 µM | 2.9 | 48.2 ± 1.06 µM |
| C=C1CC[C@H]2C(C)(C)CCC[C@]2(C)[C@H]1CC/C(C)=C/C(=O)NCc1ccccc1 [Compound 4f, (E)-N-Benzyl-3-methyl-5-((1S,4aS,8aS)-5,5,8a-trimethyl-2-methylene-decahydronaphthalen-1-yl)pent-2-enamide] | > 120 µM | 1.0 | > 120 µM | 1.0 | > 120 µM | 1.0 | > 120 µM | 1.0 | > 120 µM | 1.0 | > 120 µM | 1.0 | > 120 µM | 1.0 | > 120 µM | 1.0 | 87.3 ± 8.47 µM | 1.5 | > 120 µM |
| C=C1CC[C@H]2C(C)(C)CCC[C@]2(C)[C@H]1CC/C(C)=C/C(=O)NC [Compound 4a, (E)-N,3-Dimethyl-5-((1S,4aS,8aS)-5,5,8a-trimethyl-2-methylenedecahydro-naphthalen-1-yl)pent-2-enamide] | 122 ± 3.48 µM | 0.5 | 47.7 ± 1.08 µM | 1.2 | 62.9 ± 1.36 µM | 0.9 | 29.9 ± 0.71 µM | 1.9 | 65.1 ± 3.57 µM | 0.9 | 73.4 ± 2.06 µM | 0.8 | 73.4 ± 2.06 µM | 0.8 | 25.5 ± 0.7 µM | 2.2 | 24.7 ± 1.41 µM | 2.3 | 55.9 ± 0.19 µM |
| C=C1CC[C@H]2C(C)(C)CCC[C@]2(C)[C@H]1CC/C(C)=C/C(=O)NN [Compound 4k, (E)-3-Methyl-5-((1S,4aS,8aS)-5,5,8a-trimethyl-2-methylenedecahydro-naphthalen-1-yl)pent-2-enehydrazide] | > 120 µM | 0.9 | 118.78 ± 0.06 µM | 1.2 | 130 ± 2 µM | 1.1 | 98.5 ± 3.01 µM | 1.5 | > 120 µM | 0.9 | > 120 µM | 0.9 | > 120 µM | 0.9 | 29.3 ± 2.43 µM | 5.0 | 108 ± 1.53 µM | 1.4 | 145.8 ± 0.34 µM |
| C=C1CC[C@H]2C(C)(C)CCC[C@]2(C)[C@H]1CC/C(C)=C/C(=O)N(C)O [Compound 4p, (E)-N-Hydroxy-N,3-dimethyl-5-((1S,4aS,8aS)-5,5,8a-trimethyl-2-methylenedecahydronaphthalen-1-yl)pent-2-enamide] | 96.67 ± 0.08 µM | 0.7 | 33.6 ± 0.54 µM | 2.1 | 58.6 ± 1.2 µM | 1.2 | 24.5 ± 0.61 µM | 2.8 | 61.4 ± 2.16 µM | 1.1 | 64.6 ± 0.76 µM | 1.1 | 35.7 ± 1.01 µM | 2.0 | 3.72 ± 0.26 µM | 18.8 | 6.81 ± 1.99 µM | 10.2 | 69.8 ± 1.24 µM |
| C=C1CC[C@H]2C(C)(C)CCC[C@]2(C)[C@H]1CC/C(C)=C/C(=O)NCC(=O)O [Compound 4s, ((E)-3-methyl-5-((1S,4aS,8aS)-5,5,8a-trimethyl-2-methylenedecahydro-naphthalen-1-yl)pent-2-enoyl)glycine] | > 120 µM | 1.0 | > 120 µM | 1.0 | > 120 µM | 1.0 | > 120 µM | 1.0 | > 120 µM | 1.0 | – | – | > 120 µM | 1.0 | 84.14 ± 0.09 µM | 1.6 | 75.1 ± 3.24 µM | 1.8 | > 120 µM |
| COc1cc([C@@H]2c3cc4c(cc3[C@@H](O[C@@H]3O[C@@H]5CO[C@@H](C)O[C@H]5[C@H](O)[C@H]3O)[C@H]3COC(=O)[C@H]23)OCO4)cc(OC)c1O [ETO, etoposide, reference compound] | – | – | – | – | – | – | – | – | – | – | – | – | – | – | 0.07 ± 0.12 µM | – | 1.21 ± 0.15 µM | – | – |
| COc1cccc2c1C(=O)c1c(O)c3c(c(O)c1C2=O)C[C@@](O)(C(=O)CO)C[C@@H]3O[C@H]1C[C@H](N)[C@H](O)[C@H](C)O1 [DOX, doxorubicin, reference compound] | 38.08 ± 0.29 µM | – | 0.48 ± 0.01 µM | 1.6 | 0.78 ± 0.06 µM | 1.0 | 2.7 ± 0.16 µM | 0.3 | 0.38 ± 0.03 µM | 2.0 | 0.4 ± 0.02 µM | 1.9 | 0.47 ± 0.03 µM | 1.6 | – | – | – | – | 0.76 ± 0.05 µM |
